From publication PMC6353901, “Systematic characterization of position one variants within the lantibiotic nisin” (Scientific Reports, 2019)
Ends that are not written are not given here.

Tested on: NisP
Assay: Leader peptide cleavage of pre-nisin variants by NisP (RP-HPLC)
Assay type: biochemical, Lactococcus lactis
Conditions: in vitro cleavage of the leader peptide from purified pre-nisin (variant) by purified secreted NisP, overnight at 8 °C, integration of leader peptide peaks
Text: Step IV concerns leader peptide cleavage and thereby activation of the purified pre-nisin variants. Here, we used the secreted variant of the natural leader peptidase NisP, by which the leader peptide is cleaved in vitro and the cleavage efficiency (%) can be calculated as recently shown. We used an RP-HPLC set-up to monitor product formation, in which the appearance of the leader peptide in the chromatograms was used to determine the concentration of activated nisin (Supplementary Fig. S3). […] The nisin core peptide eluted at a later retention time of approximately 23 min (Supplementary Fig. S3). […] However, in the case of the I1 mutants I1A, I1G, I1T, I1S, I1K, I1R, I1H, I1Q, I1E, I1N and I1D) the formation of a core peptide peak in terms of a new and separated peak in the chromatogram was not observed (Supplementary Fig. S4). Rather, the peaks with a retention time between 18–21 min contained both species, the cleaved and non-cleaved lantibiotic, and can therefore not be deconvoluted for proper determination of the amount of activated nisin. […] The concentration was calculated based on a standard calibration curve (Supplementary Fig. S5), where we precisely determined the concentration of the activated nisin or I1 mutants. We used this concentration determination instead of the colorimetric protein concentration determination as for example Bradford or the BCA-assay since the latter two assays cannot differentiate between the activated and non-activated form of the secreted variants. Since nisin is not active unless the leader is cleaved off, the determination of the area of the leader peak to calculate the amount of the activated lantibiotic directly relates to the antimicrobial activity without need to further purify the peptide after cleavage.
All I1 mutations were subjected to NisP cleavage and most of the variants were cleaved, but a strong influence of the nature of the I1 substitutions with respect to cleavage efficiency was observed (Supplementary Fig. S6). The cleavage efficiency for wild type pre-nisin A was 94.3 ± 1.7% but lower for the mutants I1M, I1L, I1A and I1V (72.3 ± 1.4%, 72.4 ± 1.3%, 81.0 ± 1.8% and 58.1± 2.8%, respectively). […] This holds especially in those cases, where the amino acid at position one was exchanged to a charged amino acid (e.g. I1K 9.2 ± 1.3%; I1E 9.5 ± 0.7%) or contained a bulky hydrophobic side chain (e.g. I1F 12.9 ± 0.8%; I1W 5.7 ± 0.2%; I1Y 22.6 ± 2.3%) (Supplementary Fig. S6). […] Even after an extensive prolongation of the incubation time, no leader peptide peak was detected in the RP-HPLC chromatogram (Supplementary Fig. S4). It is important to stress in this context that the cleavage efficiencies cannot be determined from Tricine-SDS gels (20%). Here, the leader peptide as well as the core peptide would co-migrate, which obviously will falsify the staining results.
Pre-nisin and its variants were expressed and purified as previously described[41],[49],[69]. The purity of pre-nisin and its variants was controlled by Tricine-SDS-PAGE (20%)[70]. The activation of all variants was performed by NisP cleavage overnight at 8 °C. Pre-nisin cleavage and its variants was monitored by RP-HPLC[49],[69].
Pre-nisin and the activated nisin variants were analysed by RP-HPLC (Agilent Technologies 1260 Infinity II) with a LiChrospher WP 300 RP-18 end-capped column and an acetonitrile/water solvent system. The cleavage efficiency and the concentration of active lantibiotic was calculated as described previously[49],[69].

Compound: I1P: nisin A variant, position one exchanged to P; pre-peptide not cleaved by NisP (MSTKDFNLDLVSVSKKDSGASPRPTSISLCTPGCKTGALMGCNMKTATCHCSIHVSK; ends and bridges not checked; cysteine pairing not given here; UniProt P13068 1-57, looked up, variant I1P)
- cleavage efficiency by NisP: not cleaved at all

Compound: C=C(NC(=O)[C@@H](NC(=O)[C@H](Cc1c[nH]cn1)NC(=O)[C@@H](NC(=O)[C@H](CO)NC(=O)[C@@H]1CS[C@@H](C)[C@H]2NC(=O)[C@H](C)NC(=O)[C@H](NC(=O)[C@H](CCCCN)NC(=O)[C@H](CCSC)NC(=O)[C@H](CC(N)=O)NC(=O)[C@@H]3CS[C@@H](C)[C@@H](NC(=O)[C@H](CCCCN)NC(=O)[C@@H]4CS[C@@H](C)[C@@H](NC(=O)[C@@H]5CSC[C@@H](NC(=O)/C(=C/C)NC(=O)[C@@H](N)CCCCN)C(=O)N[C@@H]([C@@H](C)CC)C(=O)NC(=C)C(=O)N[C@@H](CC(C)C)C(=O)N5)C(=O)N5CCC[C@H]5C(=O)NCC(=O)N4)C(=O)NCC(=O)N[C@@H](C)C(=O)N[C@@H](CC(C)C)C(=O)N[C@@H](CCSC)C(=O)NCC(=O)N3)[C@H](C)SC[C@H](NC2=O)C(=O)N[C@@H](Cc2c[nH]cn2)C(=O)N1)[C@@H](C)CC)C(C)C)C(=O)N[C@@H](CCCCN)C(=O)O [I1K]
- cleavage efficiency by NisP: 9.2 ± 1.3%

Compound: C=C(NC(=O)[C@@H](NC(=O)[C@H](Cc1c[nH]cn1)NC(=O)[C@@H](NC(=O)[C@H](CO)NC(=O)[C@@H]1CS[C@@H](C)[C@H]2NC(=O)[C@H](C)NC(=O)[C@H](NC(=O)[C@H](CCCCN)NC(=O)[C@H](CCSC)NC(=O)[C@H](CC(N)=O)NC(=O)[C@@H]3CS[C@@H](C)[C@@H](NC(=O)[C@H](CCCCN)NC(=O)[C@@H]4CS[C@@H](C)[C@@H](NC(=O)[C@@H]5CSC[C@@H](NC(=O)/C(=C/C)NC(=O)[C@H](C)N)C(=O)N[C@@H]([C@@H](C)CC)C(=O)NC(=C)C(=O)N[C@@H](CC(C)C)C(=O)N5)C(=O)N5CCC[C@H]5C(=O)NCC(=O)N4)C(=O)NCC(=O)N[C@@H](C)C(=O)N[C@@H](CC(C)C)C(=O)N[C@@H](CCSC)C(=O)NCC(=O)N3)[C@H](C)SC[C@H](NC2=O)C(=O)N[C@@H](Cc2c[nH]cn2)C(=O)N1)[C@@H](C)CC)C(C)C)C(=O)N[C@@H](CCCCN)C(=O)O [I1A]
- cleavage efficiency by NisP: 81.0 ± 1.8%

Compound: C=C(NC(=O)[C@@H](NC(=O)[C@H](Cc1c[nH]cn1)NC(=O)[C@@H](NC(=O)[C@H](CO)NC(=O)[C@@H]1CS[C@@H](C)[C@H]2NC(=O)[C@H](C)NC(=O)[C@H](NC(=O)[C@H](CCCCN)NC(=O)[C@H](CCSC)NC(=O)[C@H](CC(N)=O)NC(=O)[C@@H]3CS[C@@H](C)[C@@H](NC(=O)[C@H](CCCCN)NC(=O)[C@@H]4CS[C@@H](C)[C@@H](NC(=O)[C@@H]5CSC[C@@H](NC(=O)/C(=C/C)NC(=O)[C@@H](N)C(C)C)C(=O)N[C@@H]([C@@H](C)CC)C(=O)NC(=C)C(=O)N[C@@H](CC(C)C)C(=O)N5)C(=O)N5CCC[C@H]5C(=O)NCC(=O)N4)C(=O)NCC(=O)N[C@@H](C)C(=O)N[C@@H](CC(C)C)C(=O)N[C@@H](CCSC)C(=O)NCC(=O)N3)[C@H](C)SC[C@H](NC2=O)C(=O)N[C@@H](Cc2c[nH]cn2)C(=O)N1)[C@@H](C)CC)C(C)C)C(=O)N[C@@H](CCCCN)C(=O)O [I1V]
- cleavage efficiency by NisP: 58.1± 2.8%

Compound: C=C(NC(=O)[C@@H](NC(=O)[C@H](Cc1c[nH]cn1)NC(=O)[C@@H](NC(=O)[C@H](CO)NC(=O)[C@@H]1CS[C@@H](C)[C@H]2NC(=O)[C@H](C)NC(=O)[C@H](NC(=O)[C@H](CCCCN)NC(=O)[C@H](CCSC)NC(=O)[C@H](CC(N)=O)NC(=O)[C@@H]3CS[C@@H](C)[C@@H](NC(=O)[C@H](CCCCN)NC(=O)[C@@H]4CS[C@@H](C)[C@@H](NC(=O)[C@@H]5CSC[C@@H](NC(=O)/C(=C/C)NC(=O)[C@@H](N)CCC(=O)O)C(=O)N[C@@H]([C@@H](C)CC)C(=O)NC(=C)C(=O)N[C@@H](CC(C)C)C(=O)N5)C(=O)N5CCC[C@H]5C(=O)NCC(=O)N4)C(=O)NCC(=O)N[C@@H](C)C(=O)N[C@@H](CC(C)C)C(=O)N[C@@H](CCSC)C(=O)NCC(=O)N3)[C@H](C)SC[C@H](NC2=O)C(=O)N[C@@H](Cc2c[nH]cn2)C(=O)N1)[C@@H](C)CC)C(C)C)C(=O)N[C@@H](CCCCN)C(=O)O [I1E]
- cleavage efficiency by NisP: 9.5 ± 0.7%

Compound: C=C(NC(=O)[C@@H](NC(=O)[C@H](Cc1c[nH]cn1)NC(=O)[C@@H](NC(=O)[C@H](CO)NC(=O)[C@@H]1CS[C@@H](C)[C@H]2NC(=O)[C@H](C)NC(=O)[C@H](NC(=O)[C@H](CCCCN)NC(=O)[C@H](CCSC)NC(=O)[C@H](CC(N)=O)NC(=O)[C@@H]3CS[C@@H](C)[C@@H](NC(=O)[C@H](CCCCN)NC(=O)[C@@H]4CS[C@@H](C)[C@@H](NC(=O)[C@@H]5CSC[C@@H](NC(=O)/C(=C/C)NC(=O)[C@@H](N)Cc6ccccc6)C(=O)N[C@@H]([C@@H](C)CC)C(=O)NC(=C)C(=O)N[C@@H](CC(C)C)C(=O)N5)C(=O)N5CCC[C@H]5C(=O)NCC(=O)N4)C(=O)NCC(=O)N[C@@H](C)C(=O)N[C@@H](CC(C)C)C(=O)N[C@@H](CCSC)C(=O)NCC(=O)N3)[C@H](C)SC[C@H](NC2=O)C(=O)N[C@@H](Cc2c[nH]cn2)C(=O)N1)[C@@H](C)CC)C(C)C)C(=O)N[C@@H](CCCCN)C(=O)O [I1F]
- cleavage efficiency by NisP: 12.9 ± 0.8%

Compound: C=C(NC(=O)[C@@H](NC(=O)[C@H](Cc1c[nH]cn1)NC(=O)[C@@H](NC(=O)[C@H](CO)NC(=O)[C@@H]1CS[C@@H](C)[C@H]2NC(=O)[C@H](C)NC(=O)[C@H](NC(=O)[C@H](CCCCN)NC(=O)[C@H](CCSC)NC(=O)[C@H](CC(N)=O)NC(=O)[C@@H]3CS[C@@H](C)[C@@H](NC(=O)[C@H](CCCCN)NC(=O)[C@@H]4CS[C@@H](C)[C@@H](NC(=O)[C@@H]5CSC[C@@H](NC(=O)/C(=C/C)NC(=O)[C@@H](N)Cc6ccc(O)cc6)C(=O)N[C@@H]([C@@H](C)CC)C(=O)NC(=C)C(=O)N[C@@H](CC(C)C)C(=O)N5)C(=O)N5CCC[C@H]5C(=O)NCC(=O)N4)C(=O)NCC(=O)N[C@@H](C)C(=O)N[C@@H](CC(C)C)C(=O)N[C@@H](CCSC)C(=O)NCC(=O)N3)[C@H](C)SC[C@H](NC2=O)C(=O)N[C@@H](Cc2c[nH]cn2)C(=O)N1)[C@@H](C)CC)C(C)C)C(=O)N[C@@H](CCCCN)C(=O)O [I1Y]
- cleavage efficiency by NisP: 22.6 ± 2.3%

Compound: C=C(NC(=O)[C@@H](NC(=O)[C@H](Cc1c[nH]cn1)NC(=O)[C@@H](NC(=O)[C@H](CO)NC(=O)[C@@H]1CS[C@@H](C)[C@H]2NC(=O)[C@H](C)NC(=O)[C@H](NC(=O)[C@H](CCCCN)NC(=O)[C@H](CCSC)NC(=O)[C@H](CC(N)=O)NC(=O)[C@@H]3CS[C@@H](C)[C@@H](NC(=O)[C@H](CCCCN)NC(=O)[C@@H]4CS[C@@H](C)[C@@H](NC(=O)[C@@H]5CSC[C@@H](NC(=O)/C(=C/C)NC(=O)[C@@H](N)CCSC)C(=O)N[C@@H]([C@@H](C)CC)C(=O)NC(=C)C(=O)N[C@@H](CC(C)C)C(=O)N5)C(=O)N5CCC[C@H]5C(=O)NCC(=O)N4)C(=O)NCC(=O)N[C@@H](C)C(=O)N[C@@H](CC(C)C)C(=O)N[C@@H](CCSC)C(=O)NCC(=O)N3)[C@H](C)SC[C@H](NC2=O)C(=O)N[C@@H](Cc2c[nH]cn2)C(=O)N1)[C@@H](C)CC)C(C)C)C(=O)N[C@@H](CCCCN)C(=O)O [I1M]
- cleavage efficiency by NisP: 72.3 ± 1.4%

Compound: C=C(NC(=O)[C@@H](NC(=O)[C@H](Cc1c[nH]cn1)NC(=O)[C@@H](NC(=O)[C@H](CO)NC(=O)[C@@H]1CS[C@@H](C)[C@H]2NC(=O)[C@H](C)NC(=O)[C@H](NC(=O)[C@H](CCCCN)NC(=O)[C@H](CCSC)NC(=O)[C@H](CC(N)=O)NC(=O)[C@@H]3CS[C@@H](C)[C@@H](NC(=O)[C@H](CCCCN)NC(=O)[C@@H]4CS[C@@H](C)[C@@H](NC(=O)[C@@H]5CSC[C@@H](NC(=O)/C(=C/C)NC(=O)[C@@H](N)CC(C)C)C(=O)N[C@@H]([C@@H](C)CC)C(=O)NC(=C)C(=O)N[C@@H](CC(C)C)C(=O)N5)C(=O)N5CCC[C@H]5C(=O)NCC(=O)N4)C(=O)NCC(=O)N[C@@H](C)C(=O)N[C@@H](CC(C)C)C(=O)N[C@@H](CCSC)C(=O)NCC(=O)N3)[C@H](C)SC[C@H](NC2=O)C(=O)N[C@@H](Cc2c[nH]cn2)C(=O)N1)[C@@H](C)CC)C(C)C)C(=O)N[C@@H](CCCCN)C(=O)O [I1L]
- cleavage efficiency by NisP: 72.4 ± 1.3%
